The test system of the test is EGFR. As to the kind of experiment: Western blot of EGFR expression after PPF treatment. It is filed as cell-based, human. The following applies: T98G, GBM10, GBM43 cells, 5 μM PPF, 24 hours. As for the experimental part:
FIG. 24A—a Western blot analysis of TROY expression in T98G cells. Cells were treated with PPF at indicated concentrations for 6 hrs, lysed, and cell lysates immunoblotted with anti-TROY antibody. Immunoblotting of α-Tubulin in cell lysates is included as a loading control. FIG. 24B—Western blot analysis of TROY expression in T98G, GBM43, and GBM10 cells. Cells were treated with PPF at indicated concentrations for 24 hrs, lysed, and cell lysates immunoblotted with anti-TROY and α-Tubulin antibodies. FIG. 24C—Western Blot analysis of TROY expression in GBM10 and GBM43 primary glioma cells. Cells were treated with 5 μM PPF, lysed at the indicated time-points, and the lysates immunoblotted with an anti-TROY antibody. Immunoblotting of β-Actin in cell lysates is included as a loading control. FIG. […]—Western Blot analysis of T98G, GBM10 and GBM43 glioma cells treated with 5 μM PPF for 24 hours. […]
Referring now to FIGS. 24A, 24B, 24C, and 24D: The inventors investigated if PPF could be utilized pharmacologically to decrease TROY expression in GBM cells. […] Cells were treated with increasing concentration of PPF, 1 to 20 μM lysed, and TROY expression assessed by immunobloting. […] Protein concentrations were determined using the BCA Assay (Pierce). […] Protein bands were detected using SuperSignal® Chemiluminescent Substrate (Pierce) with a UVP BioSpectrum 500 Imaging System.
For orientation: Immunoblotting shows a protein as a band on a membrane.

In the case of `CCCn1cnc2c1c(=O)n(CCCCC(C)=O)c(=O)n2C` [PPF, 3-methyl-1-(5-oxohexyl)-7-propyl-3,7-dihydro-1H-purine-2,6-dione], the EGFR expression entry is listed as “did not affect the expression”.

The record behind these values is patent US10624895B2, “Methods of sensitizing a patient with glioma to a therapeutic agent by administering small hairpin RNA targeting PDZ-RHOGEF” (THE TRANSLATIONAL GENOMICS RESEARCH INSTITUTE, priority 2016, dated 2020).
